According to BindingDB's records for doi:10.7270/Q23T9FMP (The Scripps Research Institute Molecular Screening Center, 2007):
Structures can show the parent of a compound that is named as a salt.

Molecular target: Steroidogenic factor 1 (Homo sapiens, UniProt Q13285)
Experiment: activation of SF-1 LBD reporter – cell-based, CHO-K1, Gal4-SF-1 LBD, luciferase luminescence, dose response (AID 692)
Conditions: not given

Chain of Steroidogenic factor 1 (Q13285 whole entry, the tested form may be a part): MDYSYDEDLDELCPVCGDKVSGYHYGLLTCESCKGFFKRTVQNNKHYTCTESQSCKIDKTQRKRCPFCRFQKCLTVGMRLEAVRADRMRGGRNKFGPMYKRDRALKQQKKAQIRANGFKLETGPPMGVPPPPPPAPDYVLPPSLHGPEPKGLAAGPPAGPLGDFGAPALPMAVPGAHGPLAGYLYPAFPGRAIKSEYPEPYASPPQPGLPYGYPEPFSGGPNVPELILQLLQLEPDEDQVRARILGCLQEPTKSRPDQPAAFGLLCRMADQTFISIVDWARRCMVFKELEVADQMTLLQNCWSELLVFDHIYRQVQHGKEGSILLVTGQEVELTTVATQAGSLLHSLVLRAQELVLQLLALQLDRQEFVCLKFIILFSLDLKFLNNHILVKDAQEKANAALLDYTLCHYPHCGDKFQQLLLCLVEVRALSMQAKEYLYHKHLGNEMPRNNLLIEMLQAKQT

Compound	EC50 [µM]
COc1ccc(OC)c2sc(NC(=O)c3ccc(Br)s3)nc12 [5-bromanyl-N-(4,7-dimethoxy-1,3-benzothiazol-2-yl)thiophene-2-carboxamide]	> 99
c1ccc(-c2cnc(CSc3nnc4ccccn34)o2)cc1 [5-phenyl-2-([1,2,4]triazolo[4,3-a]pyridin-3-ylsulfanylmethyl)-1,3-oxazole]	0.957
COc1ccc(-c2cn3ccsc3n2)cc1 [6-(4-methoxyphenyl)imidazo[2,1-b][1,3]thiazole]	0.38
CCOC(=O)c1cnc2c(-c3ccccc3)cnn2c1N [7-amino-3-phenyl-6-pyrazolo[1,5-a]pyrimidinecarboxylic acid ethyl ester]	0.183
CCc1nc(Nc2ccc3nccnc3c2)c2oc3ccccc3c2n1 [(2-ethylbenzofuro[3,2-d]pyrimidin-4-yl)-quinoxalin-6-yl-amine;hydrochloride]	> 99
CC(=Nc1cccc(O)c1)c1sc2ccccc2c1O [(2Z)-2-[1-(3-hydroxyanilino)ethylidene]-1-benzothiophen-3-one]	4.47
CC(=NC1CCCC1)c1c(C)[nH]n(-c2nc3ccccc3s2)c1=O [(4Z)-2-(1,3-benzothiazol-2-yl)-4-[1-(cyclopentylamino)ethylidene]-5-methylpyrazol-3-one]	0.741
Fc1ccc2nc(Nc3nc4c(s3)CCCC4)sc2c1 [(6-fluoro-1,3-benzothiazol-2-yl)-(4,5,6,7-tetrahydro-1,3-benzothiazol-2-yl)amine]	1.01
O=C(Nc1ccc(NC(=O)c2cccs2)cn1)c1ccco1 [Furan-2-carboxylic acid {5-[(thiophene-2-carbonyl)-amino]-pyridin-2-yl}-amide]	5.54
O=C(Nc1nnc(C2CCCCC2)s1)c1ccco1 [MLS000039439]	> 1.22

Other lines, results leading:

EC50 [µM]	Compound
> 0.407	CC1(C)Cc2c(sc(NC(=O)c3ccc(Br)o3)c2C#N)CO1 [5-bromanyl-N-(3-cyano-5,5-dimethyl-4,7-dihydrothieno[2,3-c]pyran-2-yl)furan-2-carboxamide]
4.1	O=C(Nc1cccc(-c2nnc(-c3ccccc3)o2)c1)c1ccc(Br)o1 [5-bromanyl-N-[3-(5-phenyl-1,3,4-oxadiazol-2-yl)phenyl]furan-2-carboxamide]
3.23	CCc1ccc(C(=O)NCc2cccs2)s1 [5-ethyl-N-(2-thenyl)thiophene-2-carboxamide]
> 1.22	COCC(C)NC(=O)c1noc2c1CCc1cc(OC)ccc1-2 (stereo not drawn) [7-methoxy-N-(1-methoxypropan-2-yl)-4,5-dihydrobenzo[g][1,2]benzoxazole-3-carboxamide]
0.746	COC(=O)CSc1nc2cc(C)ccc2cc1C#N [(3-Cyano-7-methyl-quinolin-2-ylsulfanyl)-acetic acid methyl ester]
3.59	Cc1ccc(C2C(C(=O)c3cnn(-c4ccccc4)c3C)C(=O)C(=O)N2CCN(C)C)o1 (stereo not drawn) [(4E)-1-[2-(dimethylamino)ethyl]-4-[hydroxy-(5-methyl-1-phenyl-4-pyrazolyl)methylidene]-5-(5-methyl-2-furanyl)pyrrolidine-2,3-dione]
> 11	Cn1c(-c2ccc3c(c2)OCO3)cnc1NCc1ccccc1 [(5-Benzo[1,3]dioxol-5-yl-1-methyl-1H-imidazol-2-yl)-benzyl-amine]
2.89	CC(=N)C(C#N)C(=O)CSc1ccc2c(c1)OCCO2 (stereo not drawn) [(E)-3-amino-2-[2-(2,3-dihydro-1,4-benzodioxin-6-ylsulfanyl)acetyl]but-2-enenitrile]
0.444	CC(=O)Nc1ccc(-c2cc3ccccc3o2)cc1 [MLS000036584]
> 3.67	CC(=O)c1c(C)[nH]c(C(=O)NCCc2cccc(C)c2)c1C [MLS000045238]
> 99	O=C(NCC1CCCO1)c1coc2nc3ccccc3nc12 (stereo not drawn) [MLS000046703]
> 0.407	O=C(Nc1ccc2c(c1)OCO2)c1ccc(COc2ccc3c(c2)CCC3)o1 [MLS000048173]

Same assay, conditions: inactive by the depositor's call

Compound	EC50 [µM]
CCN(CC)c1ccc(-n2cc3c(=O)n(C)c(=O)n(C)c3c2)cc1 [6-(4-Diethylamino-phenyl)-1,3-dimethyl-1,6-dihydro-pyrrolo[3,4-d]pyrimidine-2,4-dione]	12.4
